# Laboratory results from US10227323B2, “Glucosylceramide synthase inhibitors for the treatment of diseases” (BIOMARIN PHARMACEUTICAL INC., priority 2013, dated 2019).
# Target: T1, GCS (Canis lupus familiaris, UniProt A0A8I3MXG6)
# T1 sequence (A0A8I3MXG6 1-394): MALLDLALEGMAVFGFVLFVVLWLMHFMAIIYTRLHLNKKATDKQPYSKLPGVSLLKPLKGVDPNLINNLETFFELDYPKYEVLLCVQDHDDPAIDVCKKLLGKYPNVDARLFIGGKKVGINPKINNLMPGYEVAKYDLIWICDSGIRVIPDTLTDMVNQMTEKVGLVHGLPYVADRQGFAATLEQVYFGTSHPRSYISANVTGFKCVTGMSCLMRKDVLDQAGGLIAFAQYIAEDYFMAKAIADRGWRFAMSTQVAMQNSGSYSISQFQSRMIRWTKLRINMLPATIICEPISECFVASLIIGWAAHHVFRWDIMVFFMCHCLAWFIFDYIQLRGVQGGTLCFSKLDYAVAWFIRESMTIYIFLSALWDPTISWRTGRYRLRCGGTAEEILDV
# Test: Assay 1: GCS Enzymatic Assay (MDCK cell lysate, C6-NBD-Ceramide, LC/MS)
# Format: biochemical, canine
# Details: Table 1; MDCK cell lysate; read-out: IC50 (nM) generated from Assay 1
# Method in brief: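 LC/MS/MS measurement of glucosylceramide and NBD-ceramide after a 1 h, 37 °C reaction with 100 μM UDP-glucose and 10 μM C6-NBD-ceramide gave IC50s or percent inhibition.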
row,SMILES,IC50 [nM]
1,"COc1ccc([C@@H](O)[C@@H](CN2CCCC2)NC(=O)C(F)(F)c2cc3cc(Cl)ccc3o2)cc1C(F)F [Compound 59, 2-(5-chlorobenzofuran-2-yl)-N-((1R,2R)-1-(3-(difluoromethyl)-4-methoxyphenyl)-1-hydroxy-3-(pyrrolidin-1-yl)propan-2-yl)-2,2-difluoroacetamide]",50 to 5000
2,"[2H]C([2H])(C(=O)N[C@H](CN1CCCC1)[C@H](O)c1ccc2c(c1)OCCO2)c1cc2cc(Cl)ccc2o1 [Compound 60, 2-(5-chlorobenzofuran-2-yl)-N-((1R,2R)-1-(2,3-dihydrobenzo[b][1,4]dioxin-6-yl)-1-hydroxy-3-(pyrrolidin-1-yl)propan-2-yl)-2,2-dideutero-acetamide]",< 50
3,"O=C(N[C@H](CN1CCCC1)[C@H](O)c1ccc2c(c1)OCCO2)C(F)(F)C1Cc2ccc(Cl)cc2C1 (stereo partly drawn) [Compound 63, 2-(5-chloro-2,3-dihydro-1H-inden-2-yl)-N-((1R,2R)-1-(2,3-dihydrobenzo[b][1,4]dioxin-6-yl)-1-hydroxy-3-(pyrrolidin-1-yl)propan-2-yl)-2,2-difluoroacetamide]",< 50

# The next lines start with the values.
row,IC50 [nM],SMILES
1,< 50,"O=C(N[C@H](CN1CCCC1)[C@H](O)c1cc(F)c2c(c1)OCCO2)C(F)(F)c1cc2cc(Cl)ccc2o1 [Compound 64, 2-(5-chlorobenzofuran-2-yl)-2,2-difluoro-N-((1R,2R)-1-(8-fluoro-2,3-dihydrobenzo[b][1,4]dioxin-6-yl)-1-hydroxy-3-(pyrrolidin-1-yl)propan-2-yl)acetamide]"
2,< 50,"O=C(N[C@H](CN1CCCC1)[C@H](O)c1cc(Cl)c2c(c1)OCCO2)C(F)(F)c1cc2cc(Cl)ccc2o1 [Compound 65, N-((1R,2R)-1-(8-chloro-2,3-dihydrobenzo[b][1,4]dioxin-6-yl)-1-hydroxy-3-(pyrrolidin-1-yl)propan-2-yl)-2-(5-chlorobenzofuran-2-yl)-2,2-difluoroacetamide]"
3,< 50,"CC1CN(C[C@@H](NC(=O)C(F)(F)c2cc3cc(Cl)ccc3o2)[C@H](O)c2ccc3c(c2)OCCO3)C1 [Compound 66, 2-(5-chlorobenzofuran-2-yl)-N-((1R,2R)-1-(2,3-dihydrobenzo[b][1,4]dioxin-6-yl)-1-hydroxy-3-(3-methylazetidin-1-yl)propan-2-yl)-2,2-difluoroacetamide]"
4,< 50,"O=C(N[C@H](CN1CCCC1)[C@H](O)c1ccc(OC2CC2)c(Cl)c1)C(F)(F)C1Cc2ccc(Cl)cc2C1 (stereo partly drawn) [Compound 67, 2-(5-chloro-2,3-dihydro-1H-inden-2-yl)-N-((1R,2R)-1-(3-chloro-4-cyclopropoxyphenyl)-1-hydroxy-3-(pyrrolidin-1-yl)propan-2-yl)-2,2-difluoroacetamide]"
5,< 50,"O=C(N[C@H](CN1CCCC1)[C@H](O)c1ccc(OC2CC2)c(Cl)c1)C(F)(F)c1cc2cc(C(F)(F)F)ccc2o1 [Compound 69, N-((1R,2R)-1-(3-chloro-4-cyclopropoxyphenyl)-1-hydroxy-3-(pyrrolidin-1-yl)propan-2-yl)-2,2-difluoro-2-(5-(trifluoromethyl)benzofuran-2-yl)acetamide]"
6,50 to 5000,"O=C(N[C@H](CN1CCCC1)[C@@H](O)c1ccc(OC2CC2)c(Cl)c1)C(F)(F)c1cc2cc(C(F)(F)F)ccc2o1 [Compound 69A, N-((1S,2R)-1-(3-chloro-4-cyclopropoxyphenyl)-1-hydroxy-3-(pyrrolidin-1-yl)propan-2-yl)-2,2-difluoro-2-(5-(trifluoromethyl)benzofuran-2-yl)acetamide]"
7,< 50,"O=C(N[C@H](CN1CCCC1)[C@H](O)c1ccc2c(c1)OCCO2)C(=O)C1Cc2ccccc2C1 [Compound 70, 2-(2,3-dihydro-1H-inden-2-yl)-N-((1R,2R)-1-(2,3-dihydrobenzo[b][1,4]dioxin-6-yl)-1-hydroxy-3-(pyrrolidin-1-yl)propan-2-yl)-2-oxoacetamide]"
8,< 50,"O=C(N[C@H](CN1CCCC1)[C@H](O)c1ccc2c(c1)OCCO2)C(=O)c1cc2cc(Cl)ccc2o1 [Compound 71, 2-(5-chlorobenzofuran-2-yl)-N-((1R,2R)-1-(2,3-dihydrobenzo[b][1,4]dioxin-6-yl)-1-hydroxy-3-(pyrrolidin-1-yl)propan-2-yl)-2-oxoacetamide]"
9,< 50,"O=C(N[C@H](CN1CCCC1)[C@H](O)c1ccc2c(c1)OCCO2)/C(=N/O)c1cc2cc(Cl)ccc2o1 [Compound 72, (E)-2-(5-chlorobenzofuran-2-yl)-N-((1R,2R)-1-(2,3-dihydrobenzo[b][1,4]dioxin-6-yl)-1-hydroxy-3-(pyrrolidin-1-yl)propan-2-yl)-2-(hydroxyimino)acetamide]"
10,< 50,"O=C(N[C@H](CN1CCCC1)[C@H](O)c1ccc2c(c1)OCCO2)C(=O)C1Cc2ccc(-c3ccccn3)cc2C1 (stereo partly drawn) [Compound 73, N-((1R,2R)-1-(2,3-dihydrobenzo[b][1,4]dioxin-6-yl)-1-hydroxy-3-(pyrrolidin-1-yl)propan-2-yl)-2-oxo-2-(5-(pyridin-2-yl)-2,3-dihydro-1H-inden-2-yl)acetamide]"
11,< 50,"O=C(N[C@H](CN1CCCC1)[C@H](O)c1ccc2c(c1)OCCO2)C(=O)C1Cc2ccc(Cl)cc2C1 (stereo partly drawn) [Compound 74, 2-(5-chloro-2,3-dihydro-1H-inden-2-yl)-N-((1R,2R)-1-(2,3-dihydrobenzo[b][1,4]dioxin-6-yl)-1-hydroxy-3-(pyrrolidin-1-yl)propan-2-yl)-2-oxoacetamide]"

# Same assay, conditions: Table 1; values marked *; MDCK cell lysate
row,SMILES,% inhibition generated from Assay 1
1,"[2H][C@](O)(c1ccc2c(c1)OCCO2)[C@@H](CN1CCCC1)NC(=O)C(F)(F)c1cc2cc(Cl)ccc2o1 [Compound 57C, 2-(5-chlorobenzofuran-2-yl)-N-((1S,2R)-1-(2,3-dihydrobenzo[b][1,4]dioxin-6-yl)-1-deutero-1-hydroxy-3-(pyrrolidin-1-yl)propan-2-yl)-2,2-difluoroacetamide]",B* (the compound had a % inhibition of greater than or equal to about 3% but less than about 50%)
2,"COc1ccc([C@H](O)[C@@H](CN2CCCC2)NC(=O)C(F)(F)c2cc3cc(Cl)ccc3o2)cc1C(F)F [Compound 59I, 2-(5-chlorobenzofuran-2-yl)-N-((1S,2R)-1-(3-(difluoromethyl)-4-methoxyphenyl)-1-hydroxy-3-(pyrrolidin-1-yl)propan-2-yl)-2,2-difluoroacetamide]",B* (the compound had a % inhibition of greater than or equal to about 3% but less than about 50%)
3,"O=C(N[C@H](CN1CCCC1)[C@H](O)c1cc2c(cc1Br)OCCO2)C(F)(F)c1cc2cc(Cl)ccc2o1 [Compound 61, N-((1R,2R)-1-(7-bromo-2,3-dihydrobenzo[b][1,4]dioxin-6-yl)-1-hydroxy-3-(pyrrolidin-1-yl)propan-2-yl)-2-(5-chlorobenzofuran-2-yl)-2,2-difluoroacetamide]",B* (the compound had a % inhibition of greater than or equal to about 3% but less than about 50%)
4,"CC1(C)CN(C[C@@H](NC(=O)C(F)(F)c2cc3cc(Cl)ccc3o2)[C@H](O)c2ccc3c(c2)OCCO3)C1 [Compound 62, 2-(5-chlorobenzofuran-2-yl)-N-((1R,2R)-1-(2,3-dihydrobenzo[b][1,4]dioxin-6-yl)-3-(3,3-dimethylazetidin-1-yl)-1-hydroxypropan-2-yl)-2,2-difluoroacetamide]",B* (the compound had a % inhibition of greater than or equal to about 3% but less than about 50%)
5,"O=C(N[C@H](CN1CCCC1)[C@H](O)c1cc2cc(Cl)ccc2o1)C(F)(F)c1cc2cc(Cl)ccc2o1 [Compound 68, 2-(5-chlorobenzofuran-2-yl)-N-((1S,2R)-1-(5-chlorobenzofuran-2-yl)-1-hydroxy-3-(pyrrolidin-1-yl)propan-2-yl)-2,2-difluoroacetamide]",B* (the compound had a % inhibition of greater than or equal to about 3% but less than about 50%)
6,"O=C(N[C@H](CN1CCCC1)[C@@H](O)c1cc2cc(Cl)ccc2o1)C(F)(F)c1cc2cc(Cl)ccc2o1 [Compound 68G, 2-(5-chlorobenzofuran-2-yl)-N-((1R,2R)-1-(5-chlorobenzofuran-2-yl)-1-hydroxy-3-(pyrrolidin-1-yl)propan-2-yl)-2,2-difluoroacetamide]",B* (the compound had a % inhibition of greater than or equal to about 3% but less than about 50%)

# Same assay, conditions: Table 2; data marked by *
row,SMILES,% inhibition generated from Assay 1
1,"O=C(N[C@H](CN1CCCC1)[C@H](O)c1ccc2c(c1)OCCO2)C(=O)c1[nH]cc2c1CCCC2 [Compound 77, N-((1R,2R)-1-(2,3-dihydrobenzo[b][1,4]dioxin-6-yl)-1-hydroxy-3-(pyrrolidin-1-yl)propan-2-yl)-2-oxo-2-(4,5,6,7-tetrahydro-2H-isoindol-1-yl)acetamide]",B* (the compound had a % inhibition of greater than or equal to about 3% but less than about 50%)

# Same assay, conditions: Table 2; data without asterisk; read-out: IC50 (nM) generated from Assay 1
row,IC50 [nM],SMILES
1,< 50,"O=C(N[C@H](CN1CCC1)[C@H](O)c1ccc2c(c1)OCCO2)C(=O)c1cc2cc(Cl)ccc2o1 [Compound 78, N-((1R,2R)-3-(azetidin-1-yl)-1-(2,3-dihydrobenzo[b][1,4]dioxin-6-yl)-1-hydroxypropan-2-yl)-2-(5-chlorobenzofuran-2-yl)-2-oxoacetamide]"
2,< 50,"O=C(N[C@H](CN1CCCC1)[C@H](O)c1ccc(OC2CC2)c(Cl)c1)C(=O)c1cc2cc(Cl)ccc2o1 [Compound 79, N-((1R,2R)-1-(3-chloro-4-cyclopropoxyphenyl)-1-hydroxy-3-(pyrrolidin-1-yl)propan-2-yl)-2-(5-chlorobenzofuran-2-yl)-2-oxoacetamide]"
